Experimental findings from patent US12655116B2, “Substituted isophthalic acid diamides” (Bayer Aktiengesellschaft, priority 2020, dated 2026) are described below.

Each structure is given as a SMILES string.

For assay [1], the system named is ABUTH. Description: Pre-emergence herbicidal action against ABUTH. The format is in vivo, Abutilon theophrasti. As to conditions: for Pre-emergence action against ABUTH (herbicidal activity): 80 g/ha, scored visually after 3 weeks vs untreated controls (100% = plants have died, 0% = like control plants). In a few lines:
(§1)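 Sandy loam pots, seeds covered with soil, then surface-treated with WP or EC formulations at 600–800 l/ha water plus 0.2% wetting agent. Greenhouse, 3 weeks. Percent damage vs untreated controls.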

In assay [2] the test system is ALOMY. Description: Pre-emergence herbicidal action against ALOMY. It counts as in vivo, Alopecurus myosuroides. As to conditions: 80 g/ha, pre-emergence, scored visually after 3 weeks vs untreated controls (100% = plants have died, 0% = like control plants). In a few lines: as §1
The test system of assay [3] is AMARE. Description: Pre-emergence herbicidal action against AMARE. It counts as in vivo, Amaranthus retroflexus. In a few lines: as §1
Assay [4] has as its system ECHCG. The assay can be described thus: Pre-emergence herbicidal action against ECHCG. It counts as in vivo, Echinochloa crus-galli. To be noted: 80 g/ha. In a few lines:
as §1

Assay [5] concerns MATIN. Description: Pre-emergence herbicidal action against MATIN. The format is in vivo, Matricaria inodora. In a few lines: as §1
For assay [6], the system named is PHBPU. The assay can be described thus: Pre-emergence herbicidal action against PHBPU. It counts as in vivo, Pharbitis purpurea. As to conditions: dosage 80 g/ha. An excerpt: Seeds of monocotyledonous and dicotyledonous weed plants and crop plants are laid out in sandy loam soil in wood-fiber pots and covered with soil. The compounds of the invention, formulated in the form of wettable powders (WP) or as emulsion concentrates (EC), are then applied to the surface of the covering soil in the form of an aqueous suspension or emulsion at a water application rate equivalent to 600 to 800 l/ha, with addition of 0.2% wetting agent. After the treatment, the pots are placed in a greenhouse and kept under good growth conditions for the trial plants. The damage to the test plants is scored visually after a test period of 3 weeks by comparison with untreated controls (herbicidal activity in percent (%): 100% activity=the plants have died, 0% activity=like control plants). […] The tables below illustrate, in an illustrative manner, the post-emergence herbicidal action of the compounds of the invention, the herbicidal activity being stated in percent.

The test system of assay [7] is VERPE. The assay can be described thus: Pre-emergence herbicidal action against VERPE. It counts as in vivo, Veronica persica. In a few lines: as §1
In assay [8] the test system is VIOTR. The assay can be described thus: Pre-emergence herbicidal action against VIOTR. The format is in vivo, Viola tricolor. In a few lines: as §1
For assay [9], the system named is AMARE. The assay can be described thus: Post-emergence herbicidal action against AMARE. The format is in vivo, Amaranthus retroflexus. As to conditions: 20 g/ha, visual assessment about 3 weeks after treatment, 100% = plants have died, 0% = like control plants. In a few lines:
(§2)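 Visual % rating (0% = as untreated, 100% = dead) ~3 wk after spraying one-leaf-stage plants grown in sandy loam; WP/EC in water at 600–800 l/ha, 0.2% wetting agent.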

Assay [10] has as its system PHBPU. The assay can be described thus: Post-emergence herbicidal action against PHBPU. The format is in vivo, Pharbitis purpurea. In a few lines:
as §2

Assay [11] has as its system SETVI. Description: Pre-emergence herbicidal action against SETVI. The format is in vivo, Setaria viridis. In a few lines: as §1
The test system of assay [12] is DIGSA. The assay can be described thus: Pre-emergence herbicidal action against DIGSA. The format is in vivo, Digitaria sanguinalis. In a few lines:
as §1

The subject of assay [13] is DIGSA. Description: Post-emergence herbicidal action against DIGSA. The format is in vivo, Digitaria sanguinalis. As to conditions: 20 g/ha. In a few lines:
as §2

In assay [14] the test system is AVEFA. The assay can be described thus: Pre-emergence herbicidal action against AVEFA. The format is in vivo, Avena fatua. As to conditions: 80 g/ha, pre-emergence. In a few lines: as §1
The test system of assay [15] is ABUTH. Description: Post-emergence herbicidal action against ABUTH. As to conditions: visual assessment about 3 weeks after treatment vs untreated controls. The format is in vivo, Abutilon theophrasti. In a few lines:
as §2

The test system of assay [16] is ALOMY. The assay can be described thus: Post-emergence herbicidal action against ALOMY. The format is in vivo, Alopecurus myosuroides. As to conditions: dosage 20 g/ha, visual assessment about 3 weeks after treatment vs untreated controls. In a few lines:
as §2

Assay [17] relates to SETVI. Description: Post-emergence herbicidal action against SETVI. It counts as in vivo, Setaria viridis. As to conditions: dosage 20 g/ha. In a few lines:
as §2

The test system of assay [18] is VERPE. Description: Post-emergence herbicidal action against VERPE. To be noted: 20 g/ha. The format is in vivo, Veronica persica. In a few lines:
as §2

Assay [19] deals with VIOTR. Description: Post-emergence herbicidal action against VIOTR. The format is in vivo, Viola tricolor. To be noted: 20 g/ha. In a few lines: as §2
Setting [20] is: 20 g/ha, scored visually after 3 weeks vs untreated controls, 100% = plants have died, 0% = like control plants.
[21] abbreviates: 80 g/ha, scored visually after 3 weeks vs untreated controls (100% = plants have died, 0% = like control plants).

As to `CCn1nnnc1NC(=O)c1ccc(C(F)F)c(C(=O)NCC2CCCO2)c1Cl` (centres unmarked) [Example 2-159], the “Pre-emergence action against ABUTH (herbicidal activity)” value in [1] came out at 100%. Further, the “Pre-emergence action against ALOMY (herbicidal activity)” value (“Pre-emergence action against ALOMY” below) in [2] is listed as 80%. Besides, the “Pre-emergence action against AMARE in %” value in [3] (setting [20]) and in [3] (setting [21]) was 100% throughout. Also, the “Pre-emergence action against ECHCG in %” value in assay [4] is given as 90%. For the same compound, the “Pre-emergence action against MATIN in %” value in assay [5] (dosage 80 g/ha) stood at 90%. The “Pre-emergence action against PHBPU in %” value in assay [6] is listed as 90%. In addition, the “Pre-emergence action against VERPE in %” value in [7] (dosage 80 g/ha) worked out at 80%. Moreover, the “Pre-emergence action against VIOTR in %” value in assay [8] (dosage 80 g/ha) turned out to be 80%. In assay [9], the “Post-emergence action at 20 g/ha against AMARE in %” value stood at 100%. Besides, the “Post-emergence action against PHBPU in %” value in [10] (dosage 5 g/ha) amounted to 80%; in [10] (dosage 20 g/ha), 90%.

As for `Cc1nnc(NC(=O)c2ccc(C(F)(F)F)c(C(=O)NCC3CC3)c2C2CC2)o1` [Example 6-228], in [1], the “Pre-emergence action against ABUTH (herbicidal activity)” value came to 90%. Further, the “Pre-emergence action against AMARE in %” value in assay [3] (setting [21]) stood at 100%. Also, the “Pre-emergence action against ECHCG in %” value in assay [4] is 90%. Besides, the “Pre-emergence action against MATIN in %” value in assay [5] (dosage 80 g/ha) amounted to 80%. Further, in [6], the “Pre-emergence action against PHBPU in %” value is on record as 80%. Besides, the “Pre-emergence action against SETVI in %” value in assay [11] (dosage 80 g/ha) came out at 80%. In addition, the figures for the “Pre-emergence action against DIGSA in %” value in assay [12] (dosage 20 g/ha) and in assay [12] (dosage 80 g/ha) were 90% and 100%, respectively. In addition, the “Post-emergence action at 20 g/ha against AMARE in %” value in [9] amounted to 90%. Moreover, the “Post-emergence action against PHBPU in %” value in [10] (dosage 20 g/ha) is reported as 80%. For the same compound, the “Post-emergence action against DIGSA” value in assay [13] came out at 80%.

As to `CCn1nnnc1NC(=O)c1ccc(OC)c(C(=O)NC2CC2)c1Cl` [Example 2-354], the “Pre-emergence action against ABUTH (herbicidal activity)” value in assay [1] is reported as 100%. Also, the “Pre-emergence action against ABUTH (herbicidal activity in percent)” value in [1] (dosage 20 g/ha, scored visually after 3 weeks vs untreated controls, 100% = plants have died, 0% = like control plants) was 90%. The “Pre-emergence action against ALOMY” value in assay [2] is 90%. Moreover, the “Pre-emergence action against AMARE in %” value in [3] (setting [20]) and in assay [3] (setting [21]) was 100% each time. Further, the “Pre-emergence action against AVEFA in %” value in assay [14] is given as 90%. Also, the “Pre-emergence action against MATIN in %” value in [5] (dosage 20 g/ha) and in assay [5] (dosage 80 g/ha) was 100% throughout. Moreover, the “Pre-emergence action against VERPE in %” value in assay [7] (dosage 20 g/ha) and in [7] (dosage 80 g/ha) was 80% throughout. Moreover, the “Pre-emergence action against VIOTR in %” value in assay [8] (dosage 20 g/ha) was 80%; in assay [8] (dosage 80 g/ha), 100%. Besides, the “Post-emergence action against ABUTH in %” value in assay [15] (dosage 5 g/ha) and in assay [15] (dosage 20 g/ha) was 90% in each case. In addition, the “Post-emergence action against ALOMY in %” value in assay [16] came to 80%. For the same compound, the “Post-emergence action at 20 g/ha against AMARE in %” value in assay [9] was 100%. Besides, the “Post-emergence action against PHBPU in %” value in [10] (dosage 20 g/ha) was 80%. The “Post-emergence action against SETVI in %” value in assay [17] was found to be 90%. The “Post-emergence action against VERPE in %” value in assay [18] came to 90%. In addition, in assay [19], the “Post-emergence action against VIOTR in %” value amounted to 100%.

For `Cn1nnnc1NC(=O)c1ccc(C(F)(F)F)c(C(=O)NCC2CCCO2)c1Cl` (centres unmarked) [Example 1-141], in assay [2], the “Pre-emergence action against ALOMY” value is on record as 90%. For the same compound, the “Pre-emergence action against AMARE in %” value in assay [3] (setting [20]) and in assay [3] (setting [21]) was 100% each time. In addition, in assay [4], the “Pre-emergence action against ECHCG in %” value was 90%. The “Pre-emergence action against MATIN in %” value in [5] (dosage 80 g/ha) was found to be 100%. Further, in [6], the “Pre-emergence action against PHBPU in %” value is 80%. Moreover, the “Pre-emergence action against SETVI in %” value in [11] (dosage 20 g/ha) was 90%; in [11] (dosage 80 g/ha), 100%. Further, the “Pre-emergence action against VIOTR in %” value in [8] (dosage 20 g/ha) was found to be 80%; in assay [8] (dosage 80 g/ha), 100%. Also, the “Pre-emergence action against DIGSA in %” value in assay [12] (dosage 20 g/ha) stood at 90%; in [12] (dosage 80 g/ha) it was 100%. Besides, the “Post-emergence action at 20 g/ha against AMARE in %” value in [9] worked out at 100%.
